Source: patent US20220010352A1, “ANIMAL MODELS AND SCREENING METHODS FOR INTRAOCULAR DISEASE OR DISORDER” (ZHUHAI QlWEl BIO-TECHNOLOGY LTD., priority 2018, published 2022)
Entries after “also recorded” stand apart in the source; their conditions may differ.

How the values were obtained:
[1] = test system: Bacillus megaterium; assay: Bacillus megaterium subretinal inoculation model, bacteria-induced drusenoid pathology in retinal tissues; format: in vivo, Macaca fascicularis; settings: intravitreous, 0.5 mg, one injection on Day 2 post bacterial inoculation; macaque; compared to control; FIG. 8
Method: The macaques were sedated by intramuscular injection of a mixture of tiletamine hydrochloride (2.5 mg/kg) and xolazepam hydrochloride (2.5 mg/kg). After instilling topical anesthesia (0.5% proparacaine hydrochloride), the eyes were immediately visualized in vivo using a light microscope. The pupils were then dilated with 0.5% tropicamide and 0.5% phenylephrine to obtain the fundus photographs. […] Under microscopic monitoring, 20 μl of PBS (with or without bacteria) was injected into the subretinal space between photo receptors and RPE (retinal pigment epithelium), using a NanoFil Syringe Nanofil-100 for Microinjection (World Precision Instruments, USA). All procedures were done using sterile instruments. The macaque was euthanized 47 days post inoculation and the eyeball was enucleated for histological analyses. The eyeballs were fixed in 4% paraformaldehyde for 48 h and then embedded in paraffin. Sections were cut on a microtome at 6 μm and stained with H&E.
We examined whether subretinal inoculation of AH and VH cultures, as well as the cultured single species of B. megaterium led to AMD like pathology in macaque. About 20 CFU of bacteria (in 20 μl PBS) from AH, VH, and B. megaterium cultures were injected subretinally and PBS was used as a control (illustrated in FIG. 6). […]

[2] = test system: Bacillus megaterium; assay: antibiotic sensitivity screening test in petri dishes (minimum inhibitory concentration method); format: cell-based; settings: MIC method, 10^-1 to 10^-5 mg/mL in medium, FIG. 1
Method: The bacterial culture medium (HuanKai Microbial, Guangzhou, China) containing peptone 5 g, beef extract 3 g, NaCl 5 g, agar 15 g, and MnSO4 5 mg in 1 L ddH2O (pH=7.2) was prepared in conical flask (Drtech, Guangzhou, China) and was sterilized in the autoclave (HIRAYAMA, HEV-50, Japan) at 121° C. for 30 min. Bacillus megaterium (total 1*10^7 per culture) was cultured in the incubator (HettCube 200, Germany) at 37° C. for 24 h.
To test whether antibiotics can control the growth of Bacillus megaterium in vitro and in vivo, we first carried out an antibiotic sensitivity screening test in petri dishes which were made in example 1. The sensitivity of Bacillus megaterium to several major antimicrobial agents including ampicillin, vancomycin, neomycin, metronidazole and tetracycline were examined using the minimum inhibitory concentration (MIC) method. Ampicillin, vancomycin, neomycin, metronidazole, and tetracycline (purchased from Sigma, USA) at various concentrations (10^−1, 10^−2, 10^−3, 10^−4, 10^−5 mg/mL) were added into cooled medium.

[3] = ocular complications after intraocular administration in monkey; format: in vivo; settings: data not shown
Excerpt: Next, we used the Bacillus megaterium subretinal inoculation model to test whether antibiotics might be able to change the bacteria-induced drusenoid pathology in monkey retinal tissues.

## CN[C@H](CC(C)C)C(=O)N[C@H]1C(=O)N[C@@H](CC(N)=O)C(=O)N[C@H]2C(=O)N[C@H]3C(=O)N[C@H](C(=O)N[C@H](C(=O)O)c4cc(O)cc(O)c4-c4cc3ccc4O)[C@H](O)c3ccc(c(Cl)c3)Oc3cc2cc(c3O[C@@H]2O[C@H](CO)[C@@H](O)[C@H](O)[C@H]2O[C@H]2C[C@](C)(N)[C@H](O)[C@H](C)O2)Oc2ccc(cc2Cl)[C@H]1O [vancomycin]
[1]
  size of drusenoid lesion in retinal tissue: reduction in the size of drusenoid lesion

## neomycin
[2]; 37° C. 24 h
  sensitivity of Bacillus megaterium to antimicrobial agent / in vitro activity controlling the expansion of Bacillus megaterium: most sensitive; also recorded: best in vitro activity
[3]
  ocular complications: significant ocular complications including ophthalmatrophia

## Cc1ncc([N+](=O)[O-])n1CCO [metronidazole]
[2]
  effectiveness in controlling the growth of Bacillus megaterium, fold less effective (relative to neomycin): 10000 fold
